Like-named read-outs stand apart in the source and are kept apart here.
How the values were obtained:
[1] = Antibiotic concentrations in porcine oral fluid after intramuscular application (UHPLC-MS/MS); assay type: in vivo; conditions: pigs, i.m.; for concentration in oral fluid at withdrawal period: at the end of the withdrawal period for tissues of each drug (Table 3); for time for which the analyte was present / quantified in oral fluid: sampling for 30 days
Experimental: All animals were born in the sow farm (8000 DanBred sows) located in Northern Poland, after crossing ♀(♂Landrace × ♀Yorskshire) × ♂Duroc. Piglets were weaned after 4 weeks of lactation with an average weight of 6 kg and then moved to the weaner stable (23,000 weaners). After the next 7 weeks, animals were transported to the 9000-places fattening farm with an average body weight of 28 kg, where the trial was performed. All farms in the aforementioned three-phase model used weekly batches and an all-in all-out system. Specialist veterinary and production management care were provided in each location.
For the purpose of the study, 240 immunologically castrated boars were divided into 8 groups, 30 animals in each pen. For the control group, 30 pigs were used in separate pens. Their initial body weight was between 40 and 60 kg. Pigs were housed at 20–25 °C. Fatteners were fed ad libitum with antimicrobial-free water and feed provided by feeders throughout the study. Before the experiment, water and feed were checked for antimicrobials, and no antimicrobial treatments were administered to these pigs before. All animals in one pen were treated due to the same health issue using disposable needles and the same drug and dosage. Pens were separated from each other with concrete walls. The drugs and dosage administered to each experimental group with an indication of withdrawal period for tissues are listed in Table 3. The oral fluid samples were collected using three cotton ropes (70 cm length with 1 cm diameter) in each pen suspended separately for 25 min on the front wall of the pen with bottoms at the pigs’ shoulder height, away from water and feed.
The research material was one pooled sample of oral fluid from 10 pigs, in triplicate, per pen. Ropes were removed immediately after collection. The first oral fluid sample was collected 24 h after the first injection. The collection of each subsequent sample took place at the same time (11:30 A.M.) for 35 consecutive days. Additionally, oral fluid samples were collected from pigs not treated with any antibiotics. Oral fluid from each pen was pooled into one 50-mL Falcon plastic tube and centrifuged at 9447× rcf for 15 min. Centrifuged material was transferred to a 15 mL plastic tube and frozen at −20 °C until analysis.
Before the analysis, the oral fluid samples were centrifuged at 9447× rcf. Next, an aliquot (1 mL) of oral fluid was placed into a 2 mL polypropylene centrifuge tube, and the 30 µL of the internal standard at the concentration of 2 µg/mL was added. For the extraction of analysed antibiotics, 600 µL of 0.5% formic acid was added, vortexed for 30 s and centrifuged for 10 min at 9447× rcf. Then, the supernatant was filtered through a […] PVDF filter into an amber glass vial before chromatographic analysis.
The mass spectrometry detection was operated in the positive ESI mode with multiple reaction monitoring (MRM).

[2] = parameters: method as in PMID 14651045, PMID 14651045; conditions: cited from earlier work
[3] = organic acid; cited from earlier work
[4] = parameters: method as in PMID 28042939; conditions: 21st day, i.m., cited from earlier work
[5] = male, (Landrace × Yorkshire) × Duroc crossbred (DanBred sows), pig, intramuscular, oral fluid, time 1 d (24 h after first injection), treatment period, read-out: Avarage Concentrations in oral fluid
[6] = male, (Landrace × Yorkshire) × Duroc crossbred (DanBred sows), pig, intramuscular, oral fluid, treatment period, read-out: Avarage Concentrations in oral fluid
[7] = male, (Landrace × Yorkshire) × Duroc crossbred (DanBred sows), pig, intramuscular, oral fluid, posttreatment, read-out: Avarage Concentrations in oral fluid
[8] = oral fluid, time 1 d (24 h after first injection), treatment period
[9] = oral fluid, time 9 d, posttreatment
[10] = oral fluid, time 10 d, posttreatment
[11] = oral fluid, time 11 d, posttreatment
[12] = oral fluid, time 12 d, posttreatment
[13] = oral fluid, time 13 d, posttreatment
[14] = oral fluid, time 14 d, posttreatment
[15] = oral fluid, time 15 d, posttreatment
[16] = oral fluid, time 16 d, posttreatment
[17] = oral fluid, time 17 d, posttreatment
[18] = oral fluid, time 18 d, posttreatment
[19] = oral fluid, time 19 d, posttreatment
[20] = oral fluid, time 20 d, posttreatment
[21] = oral fluid, time 21 d, posttreatment
[22] = oral fluid, time 22 d, posttreatment
[23] = oral fluid, time 23 d, posttreatment
[24] = oral fluid, time 24 d, posttreatment
[25] = oral fluid, time 25 d, posttreatment
[26] = oral fluid, time 26 d, posttreatment
[27] = oral fluid, time 27 d, posttreatment
[28] = oral fluid, time 28 d, posttreatment
[29] = oral fluid, time 29 d, posttreatment
[30] = oral fluid, time 30 d, posttreatment

concentration at 1 d [1, 5] [ng/mL] | concentration at 2 d [1, 6] [ng/mL] | concentration at 3 d [1, 6] [ng/mL] | concentration at 4 d [1, 7] [ng/mL] | concentration at 5 d [1, 7] [ng/mL] | concentration in oral fluid at withdrawal period ([1]; oral fluid) | time for which the analyte was present / quantified in oral fluid ([1]; oral fluid) [days] | Avarage Concentrations in oral fluid [1, 8] [µg/L] | Avarage Concentrations in oral fluid [1, 9] | Avarage Concentrations in oral fluid [1, 10] | Avarage Concentrations in oral fluid [1, 11] | Avarage Concentrations in oral fluid [1, 12] | Avarage Concentrations in oral fluid [1, 13] | Avarage Concentrations in oral fluid [1, 14] | Avarage Concentrations in oral fluid [1, 15] | Avarage Concentrations in oral fluid [1, 16] | Avarage Concentrations in oral fluid [1, 17] | Avarage Concentrations in oral fluid [1, 18] | Avarage Concentrations in oral fluid [1, 19] | Avarage Concentrations in oral fluid [1, 20] | SMILES | further results
11.3 | 15.2 ± 2.3 | 14.6 ± 1.8 | 11.4 ± 1.4 | 11.2 ± 1.6 | below the limit of quantification | 5 | 11.3 ± 1.6 | <LOQ | <LOQ | <LOQ * | <LOQ | <LOQ | <LOQ | <LOQ | <LOQ | <LOQ | <LOQ | <LOQ | <LOQ | CC1(C)S[C@@H]2[C@H](NC(=O)[C@H](N)c3ccc(O)cc3)C(=O)N2[C@H]1C(=O)O [AMX, amoxicillin] | Avarage Concentrations in oral fluid ([1]; oral fluid, time 6 d, posttreatment): <LOQ; Avarage Concentrations in oral fluid ([1]; oral fluid, time 7 d, posttreatment): <LOQ; Avarage Concentrations in oral fluid ([1]; oral fluid, time 8 d, posttreatment): <LOQ; Avarage Concentrations in oral fluid [1, 21]: <LOQ; Avarage Concentrations in oral fluid [1, 22]: <LOQ; Avarage Concentrations in oral fluid [1, 23]: <LOQ; Avarage Concentrations in oral fluid [1, 24]: <LOQ; Avarage Concentrations in oral fluid [1, 25]: <LOQ; Avarage Concentrations in oral fluid [1, 26]: <LOQ; Avarage Concentrations in oral fluid [1, 27]: <LOQ; Avarage Concentrations in oral fluid [1, 28]: <LOQ; Avarage Concentrations in oral fluid [1, 29]: <LOQ; Avarage Concentrations in oral fluid [1, 30]: <LOQ; distribution to oral fluid ([1]; conclusion in words): low penetration; binding degree to plasma proteins [2]: ≈ 25%
93 | 50 ± 15 | 11 ± 4.6 | 16 ± 5.4 | 5.2 ± 1.1 | below the limit of quantification | 8 | 93 ± 21 | <LOQ * | <LOQ | <LOQ | <LOQ | <LOQ | <LOQ | <LOQ | <LOQ | <LOQ | <LOQ | <LOQ | <LOQ | CC1(C)S[C@@H]2[C@H](NC(=O)Cc3ccccc3)C(=O)N2[C@H]1C(=O)O [PEN G, penicillin G] | concentration at 6 d ([1]; male, (Landrace × Yorkshire) × Duroc crossbred (DanBred sows), pig, intramuscular, oral fluid, time 6 d, posttreatment, read-out: Avarage Concentrations in oral fluid): 52 ± 13 ng/mL; concentration at 7 d ([1]; male, (Landrace × Yorkshire) × Duroc crossbred (DanBred sows), pig, intramuscular, oral fluid, time 7 d, posttreatment, read-out: Avarage Concentrations in oral fluid): 32 ± 7.2 ng/mL; concentration at 8 d ([1]; male, (Landrace × Yorkshire) × Duroc crossbred (DanBred sows), pig, intramuscular, oral fluid, time 8 d, posttreatment, read-out: Avarage Concentrations in oral fluid): 6 ± 1.2 ng/mL; Avarage Concentrations in oral fluid [1, 21]: <LOQ; Avarage Concentrations in oral fluid [1, 22]: <LOQ; Avarage Concentrations in oral fluid [1, 23]: <LOQ; Avarage Concentrations in oral fluid [1, 24]: <LOQ; Avarage Concentrations in oral fluid [1, 25]: <LOQ; Avarage Concentrations in oral fluid [1, 26]: <LOQ; Avarage Concentrations in oral fluid [1, 27]: <LOQ; Avarage Concentrations in oral fluid [1, 28]: <LOQ; Avarage Concentrations in oral fluid [1, 29]: <LOQ; Avarage Concentrations in oral fluid [1, 30]: <LOQ; pKa [3]: 2.7
– | – | – | – | – | – | – | – | – | – | – | – | – | – | – | – | – | – | – | – | CN(C)[C@@H]1C(O)=C(C(N)=O)C(=O)[C@@]2(O)C(O)=C3C(=O)c4c(O)cccc4[C@@](C)(O)[C@H]3[C@H](O)[C@@H]12 [oxytetracycline] | concentration in oral fluid at the withdrawal period ([4]; group where all pigs were treated): 30.8 µg/kg; concentration in oral fluid at the withdrawal period ([4]; group where the antibiotic was administered to half of the animals in one pen): 11.6 µg/kg

From article PMC8879095, “UHPLC-MS/MS Analysis of Antibiotics Transfer and Concentrations in Porcine Oral Fluid after Intramuscular Application” (Pharmaceuticals, 2022)
